Source: ChEMBL document CHEMBL3872249, “Computer design, synthesis, and bioactivity analyses of drugs like fingolimod used in the treatment of multiple sclerosis” (Bioorg Med Chem, 2017)
The source made the active and inactive calls. No cut-off for these calls is given here.

What was measured:
SH-SY5Y [1] = experiment: Effect on ICAM1 mRNA expression in human SH-SY5Y cells at EC10 by qPCR method relative to beta-actin; type: functional
SK-N-SH [2] = experiment: Effect on TNFRSF1A mRNA expression in human SK-N-SH cells at EC10 by qPCR method relative to beta-actin; type: functional
SH-SY5Y [3] = experiment: Effect on GNAS mRNA expression in human SH-SY5Y cells at EC10 by qPCR method relative to beta-actin; type: functional
SH-SY5Y [4] = experiment: Effect on TNFRSF1A mRNA expression in human SH-SY5Y cells at EC10 by qPCR method relative to beta-actin; type: functional
[5] = biological target: Sphingosine 1-phosphate receptor 1 (Homo sapiens) (UniProt P21453); experiment: Agonist activity at sphingosine-1-phosphate receptor (unknown origin) expressed in HEK293 cells assessed as increase in cAMP level at EC10 after 18 hrs by CRE-responsive renilla luciferase reporter gene assay; type: functional, cell-based
Sequence of Sphingosine 1-phosphate receptor 1 (Homo sapiens) (P21453 whole entry): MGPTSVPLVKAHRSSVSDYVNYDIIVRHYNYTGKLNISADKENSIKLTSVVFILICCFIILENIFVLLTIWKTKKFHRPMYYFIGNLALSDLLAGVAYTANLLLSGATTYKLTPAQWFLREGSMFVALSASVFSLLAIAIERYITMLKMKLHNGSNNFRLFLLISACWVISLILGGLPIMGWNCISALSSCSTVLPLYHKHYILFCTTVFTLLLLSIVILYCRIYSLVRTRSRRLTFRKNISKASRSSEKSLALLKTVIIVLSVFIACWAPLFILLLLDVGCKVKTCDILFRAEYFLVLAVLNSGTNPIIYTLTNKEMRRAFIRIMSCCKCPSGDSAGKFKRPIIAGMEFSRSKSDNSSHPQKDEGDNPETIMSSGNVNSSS

SH-SY5Y [6] = experiment: Effect on ADORA2A mRNA expression in human SH-SY5Y cells at EC10 by qPCR method relative to beta-actin; type: functional
U-118-MG [7] = experiment: Effect on GNAS mRNA expression in human U118MG cells at EC10 by qPCR method relative to beta-actin; type: functional
[8] = Cytotoxicity against human SH-SY5Y cells measured after 24 hrs by crystal-violet staining based assay; type: toxicity, cell-based
[9] = biological target: Sphingosine 1-phosphate receptor 1 (Homo sapiens) (UniProt P21453); experiment: Agonist activity at sphingosine-1-phosphate receptor in human SH-SY5Y cells assessed as increase in cAMP level at EC10 by direct immunoassay; type: functional, cell-based
SK-N-SH [10] = experiment: Effect on DRD2 mRNA expression in human SK-N-SH cells at EC10 by qPCR method relative to beta-actin; type: functional
SH-SY5Y [11] = experiment: Effect on S1PR1 mRNA expression in human SH-SY5Y cells at EC10 by qPCR method relative to beta-actin; type: functional
U-118-MG [12] = experiment: Effect on NFKB1 mRNA expression in human U118MG cells at EC10 by qPCR method relative to beta-actin; type: functional
SK-N-SH [13] = experiment: Effect on TNF mRNA expression in human SK-N-SH cells at EC10 by qPCR method relative to beta-actin; type: functional
U-118-MG [14] = experiment: Effect on S1PR1 mRNA expression in human U118MG cells at EC10 by qPCR method relative to beta-actin; type: functional
SH-SY5Y [15] = experiment: Effect on CCL2 mRNA expression in human SH-SY5Y cells at EC10 by qPCR method relative to beta-actin; type: functional
[16] = Cytotoxicity against human SK-N-SH cells measured after 24 hrs by crystal-violet staining based assay; type: toxicity, cell-based
U-118-MG [17] = experiment: Effect on ADCY5 mRNA expression in human U118MG cells at EC10 by qPCR method relative to beta-actin; type: functional
SK-N-SH [18] = experiment: Effect on CCL2 mRNA expression in human SK-N-SH cells at EC10 by qPCR method relative to beta-actin; type: functional
SH-SY5Y [19] = experiment: Effect on ADCY5 mRNA expression in human SH-SY5Y cells at EC10 by qPCR method relative to beta-actin; type: functional
U-118-MG [20] = experiment: Effect on VCAM1 mRNA expression in human U118MG cells at EC10 by qPCR method relative to beta-actin; type: functional
SH-SY5Y [21] = experiment: Effect on MMP9 mRNA expression in human SH-SY5Y cells at EC10 by qPCR method relative to beta-actin; type: functional
SK-N-SH [22] = experiment: Effect on PMP22 mRNA expression in human SK-N-SH cells at EC10 by qPCR method relative to beta-actin; type: functional
SH-SY5Y [23] = experiment: Effect on CXCL10 mRNA expression in human SH-SY5Y cells at EC10 by qPCR method relative to beta-actin; type: functional
U-118-MG [24] = experiment: Effect on MMP9 mRNA expression in human U118MG cells at EC10 by qPCR method relative to beta-actin; type: functional
SK-N-SH [25] = experiment: Effect on S1PR1 mRNA expression in human SK-N-SH cells at EC10 by qPCR method relative to beta-actin; type: functional
[26] = biological target: Sphingosine 1-phosphate receptor 1 (Homo sapiens) (UniProt P21453); experiment: Agonist activity at sphingosine-1-phosphate receptor human SK-N-SH cells assessed as increase in cAMP level at EC10 by direct immunoassay; type: functional, cell-based
SK-N-SH [27] = experiment: Effect on IL10 mRNA expression in human SK-N-SH cells at EC10 by qPCR method relative to beta-actin; type: functional
SK-N-SH [28] = experiment: Effect on CXCL10 mRNA expression in human SK-N-SH cells at EC10 by qPCR method relative to beta-actin; type: functional
U-118-MG [29] = experiment: Effect on ADORA2A mRNA expression in human U118MG cells at EC10 by qPCR method relative to beta-actin; type: functional
U-118-MG [30] = experiment: Effect on TNF mRNA expression in human U118MG cells at EC10 by qPCR method relative to beta-actin; type: functional
U-118-MG [31] = experiment: Effect on IL10 mRNA expression in human U118MG cells at EC10 by qPCR method relative to beta-actin; type: functional
[32] = Cytotoxicity against human U118MG cells measured after 24 hrs by crystal-violet staining based assay; type: toxicity, cell-based; details: u-118-mg
SH-SY5Y [33] = experiment: Effect on PMP22 mRNA expression in human SH-SY5Y cells at EC10 by qPCR method relative to beta-actin; type: functional
SH-SY5Y [34] = experiment: Effect on NFKB1 mRNA expression in human SH-SY5Y cells at EC10 by qPCR method relative to beta-actin; type: functional
SH-SY5Y [35] = experiment: Effect on TNF mRNA expression in human SH-SY5Y cells at EC10 by qPCR method relative to beta-actin; type: functional
U-118-MG [36] = experiment: Effect on ICAM1 mRNA expression in human U118MG cells at EC10 by qPCR method relative to beta-actin; type: functional
SK-N-SH [37] = experiment: Effect on NFKB1 mRNA expression in human SK-N-SH cells at EC10 by qPCR method relative to beta-actin; type: functional
SH-SY5Y [38] = experiment: Effect on IL6 mRNA expression in human SH-SY5Y cells at EC10 by qPCR method relative to beta-actin; type: functional
SK-N-SH [39] = experiment: Effect on ADCY5 mRNA expression in human SK-N-SH cells at EC10 by qPCR method relative to beta-actin; type: functional
U-118-MG [40] = experiment: Effect on IL6 mRNA expression in human U118MG cells at EC10 by qPCR method relative to beta-actin; type: functional
SH-SY5Y [41] = experiment: Effect on VCAM1 mRNA expression in human SH-SY5Y cells at EC10 by qPCR method relative to beta-actin; type: functional
SK-N-SH [42] = experiment: Effect on GNAS mRNA expression in human SK-N-SH cells at EC10 by qPCR method relative to beta-actin; type: functional
SK-N-SH [43] = experiment: Effect on EPHA1 mRNA expression in human SK-N-SH cells at EC10 by qPCR method relative to beta-actin; type: functional
U-118-MG [44] = experiment: Effect on PMP22 mRNA expression in human U118MG cells at EC10 by qPCR method relative to beta-actin; type: functional

For CCCCCCCCn1nnnc1-c1ccc(C(O)CC(N)(CO)CO)cc1.Cl (centres undefined), the “fold change (FC)” value (SH-SY5Y [1]) was -3.763, the “fold change (FC)” value (SK-N-SH [2]) was -4.1053 and the “fold change (FC)” value (SH-SY5Y [3]) was -4.6852. The “fold change (FC)” value (SH-SY5Y [4]) was -3.2986, the Activity [5] was “Active” and the “fold change (FC)” value (SH-SY5Y [6]) was -4.6048. For the same compound, the “fold change (FC)” value (U-118-MG [7]) was -3.2119, the EC10 [8] was 0.3 µM and the Activity [9] was “Active”. For the same compound, the “fold change (FC)” value (SK-N-SH [10]) was -4.2208, the “fold change (FC)” value (SH-SY5Y [11]) was -5.0215 and the “fold change (FC)” value (U-118-MG [12]) was -4.6974. For the same compound, the “fold change (FC)” value (SK-N-SH [13]) was -4.9674, the “fold change (FC)” value (U-118-MG [14]) was -3.8312 and the “fold change (FC)” value (SH-SY5Y [15]) was -4.1393. For the same compound, the EC10 [16] was 0.27 µM, the “fold change (FC)” value (U-118-MG [17]) was -6.08 and the “fold change (FC)” value (SK-N-SH [18]) was -4.9933. The “fold change (FC)” value (SH-SY5Y [19]) was -4.3188, the “fold change (FC)” value (U-118-MG [20]) was -5.7757 and the “fold change (FC)” value (SH-SY5Y [21]) was -3.9092. The “fold change (FC)” value (SK-N-SH [22]) was -5.2416, the “fold change (FC)” value (SH-SY5Y [23]) was -3.1588 and the “fold change (FC)” value (U-118-MG [24]) was -4.5002. For the same compound, the “fold change (FC)” value (SK-N-SH [25]) was -4.2281, the Activity [26] was “Active” and the “fold change (FC)” value (SK-N-SH [27]) was -4.6028. For the same compound, the “fold change (FC)” value (SK-N-SH [28]) was -6.1156, the “fold change (FC)” value (U-118-MG [29]) was -4.4431 and the “fold change (FC)” value (U-118-MG [30]) was -6.5178. The “fold change (FC)” value (U-118-MG [31]) was -2.6793, the EC10 [32] was 0.36 µM and the “fold change (FC)” value (SH-SY5Y [33]) was -3.0092. For the same compound, the “fold change (FC)” value (SH-SY5Y [34]) was -3.5415, the “fold change (FC)” value (SH-SY5Y [35]) was -3.511 and the “fold change (FC)” value (U-118-MG [36]) was -5.4736. The “fold change (FC)” value (SK-N-SH [37]) was -3.6999, the “fold change (FC)” value (SH-SY5Y [38]) was -3.0565 and the “fold change (FC)” value (SK-N-SH [39]) was -4.6187. For the same compound, the “fold change (FC)” value (U-118-MG [40]) was -4.3829, the “fold change (FC)” value (SH-SY5Y [41]) was -4.0191 and the “fold change (FC)” value (SK-N-SH [42]) was -4.4537. For the same compound, the “fold change (FC)” value (SK-N-SH [43]) was -3.7516 and the “fold change (FC)” value (U-118-MG [44]) was -5.4523.
